In patent US20240315993A1, “ANTIPARASITIC COMPOUNDS” (Intervet Inc., priority 2021, published 2024):

Legend:
[1] = test system: Copepodids (juvenile sea lice stage of Lepeophtheirus salmonis); assay: Juvenile sea lice contact assay; details: Lepeophtheirus salmonis, ~24 h, read-out: Sea lice inhibition (% of dead+damaged copepodids); for inhibition at 0.01 µM: 10 nM in seawater
Method: Copepodids (juvenile sea lice stage of Lepeophtheirus salmonis) were exposed to seawater spiked with declining concentrations of a test compound (dissolved in a DMSO sea-water mixture). Sea lice inhibition (% of dead+damaged copepodids) was assessed after approximately 24 hours of continuous exposure. The vitality of used parasites was confirmed in a negative (solvent) control group.

[2] = test system: Mobile stages of sea lice (pre-adults, adults of Lepeophtheirus salmonis); assay: Adult sea lice contact assay; details: pre-adults/adults, assessed after ~1 and 24 h, read-out: EC50 (sea lice inhibition, dead+damaged)
Method: Mobile stages of sea lice (i.e., pre-adults, adults of Lepeophtheirus salmonis) were exposed to seawater spiked with declining concentrations of a test compound (dissolved in a PEG sea-water mixture). Sea lice inhibition (% of dead+damaged sea lice) was assessed after approximately 1 and 24 hours of continuous exposure in comparison to a negative (solvent) control group.

[3] = test system: juvenile soft ticks (Ornithodoros moubata); assay: Guinea pig - efficacy against argaside tick; format: in vivo; details: for effective to control ticks: at least until Day 10, both administration routes (oral, subcutaneous)
Method: (§1) Guinea pigs were locally co-infested (using an infestation device on a shaved skin area) with juvenile soft ticks (Ornithodoros moubata) and bed bugs (Cimex lectularius) before the treatment day (Day 0) to provide a baseline-negative control value. Guinea pigs were treated orally (by gavage) or subcutaneously at a dose of 5 mg/kg bodyweight of a test compound in a formulation of 10% DMF/Emulsifier+90% Aqua ad injectabilia.
(§2) Repeated local infestations with both parasites were performed at different time points after treatment. Within approximately 45 min after each infestation ten engorged ticks and ten engorged bed bugs were • collected and the percentage of dead and damaged parasites per species were • assessed approximately 24 hours following collection. The efficacy was • calculated as % of inhibition ‘killed+damaged’ parasites in a treated group in comparison to the baseline-negative control (using a modified Schneider Orelli's formula).
(§3) Results: Activity of the test compounds at different evaluation time-points (≥80% inhibition were found active): […]

[4] = test system: bed bugs (Cimex lectularius); assay: Guinea pig - efficacy against bed bug; format: in vivo; details: for effective to control bed bugs: 5 mg/kg, at least until Day 10, both administration routes (oral, subcutaneous)
Method: as §1, §2, §3

Lepeophtheirus salmonis [5] = assay: Salmon - in vivo efficacy against sea lice using gavage administration; details: 5 mg/kg once by gavage, counted around day 28; for therapeutic efficacy against juvenile sea lice (% reduction vs control): day -3 infestation
Method: Salmon (Salmo solar) were treated once orally by gavage at a dose of 5 mg/kg bodyweight per fish (Day 0). As formulation DMSO 5%/fish oil 95% was used. Salmon of the negative control group received only the excipients of the formulation.
The fish were infested with Lepeophtheirus salmonis copepodids twice before treatment (i.e., around day −28 and day −3) and once after treatment (i.e., day 17).
Around day 28 (end of animal phase), fish were euthanized, and lice on each fish were classified ((pre-)adult or juvenile stage) and counted. […] Efficacy is expressed as a % reduction of sea lice in treated groups versus a control group, using the Abbott's formula.

Lepeophtheirus salmonis [6] = assay: as above; details: po, 168 h, read-out: therapeutic efficacy against (pre-)adult sea lice (% reduction vs control), salmon, 5 mg/kg once by gavage, day -28 infestation, counted day 7
[7] = test system: Rhipicephalus sanguineus or Haemaphysalis elliptica ticks; assay: Dog - efficacy against ticks; format: in vivo; details: for therapeutic efficacy against ticks (active = efficacy ≥80 percent): D2
Method: (§4) Beagle dogs were infested (whole body) with 80 Ctenocephalides felis fleas and 50 Rhipicephalus sanguineus or Haemaphysalis elliptica ticks (sex ratio 1:1) two days before the treatment day (Day 0), and repeatedly thereafter. Dogs of treatment groups were treated with 10 mg/kg bodyweight of a test compound orally (compound weighed in gelatin capsule), topically (spot-on, DMA 92%/DEET 8%) or subcutaneously (PEG 200 90%/water for injection 10%). Dogs of the negative control group received only an empty gelatin capsule orally and the spot-on formulation excipients topically.
(§5) Compounds with efficacy ≥80 percent were found active.

[8] = test system: Ctenocephalides felis fleas; assay: Dog - efficacy against fleas; format: in vivo; details: for therapeutic efficacy against fleas (active = efficacy ≥80 percent): D2
Method: as §4, §5

Rhipicephalus microplus = assay: Cattle - efficacy against one-host tick; format: in vivo; details: 1 mg/kg pour on in Imwitor 988+Miglyol 840
Method: Cattle were infested (whole body) with up to 3000 Rhipicephalus microplus larvae two or three times per week before and after the treatment day (Day 0). Cattle of treatment groups were treated subcutaneously or topically (spray or pour-on) at a dose of 1 mg/kg bodyweight of a test compound. As subcutaneous formulation either 2-pyrrolidon 50%/Tween 80 50% or NMP 60%/PEG300 40% was used. As topical formulation either a spray solution (DMF/Emulsifier 2%/tap water 98%) (Compound 4) or a DMA 92%/DEET 8% pour-on solution (all other compounds) or a pour-on solution containing Imwitor 988 (20%)+Miglyol 840 (QS) (Compound 453 and Compound 466) or a pour-on solution containing Miglyol 840 (QS) (Compound 453) was used. Cattle of the negative control group received only the formulation excipients of the respective administration route.
Fully engorged female ticks dropping from cattle were collected daily after treatment and counted in treatment and control groups. Efficacy was expressed using the standard ADEQ analysis method (ADEQ calculation in accordance with WAAVP guidelines for evaluating the efficacy of acaricides against ticks on ruminants; Veterinary parasitology 136 (2006) 29-43). Compounds with efficacy ≥80 percent were found active/effective. Onset of efficacy means the first Day with efficacy ≥80 percent. Duration of efficacy means the last Day with efficacy ≥80 percent.

[9] = 5 mg/kg subcutaneous, after 7 days
[10] = 5 mg/kg subcutaneous, after 10 days

| SMILES | inhibition at 0.01 µM [1] [%] | EC50 [2] [nM] | activity against tick nymphs (≥80% inhibition, killed+damaged) ([3]; 5 mg/kg oral, Day 0) | activity against tick nymphs (≥80% inhibition, killed+damaged) ([3]; 5 mg/kg subcutaneous, Day 0) | activity against tick nymphs (≥80% inhibition, killed+damaged) [3, 9] | activity against bed bugs (≥80% inhibition, killed+damaged) ([4]; 5 mg/kg oral, Day 0) | activity against bed bugs (≥80% inhibition, killed+damaged) ([4]; 5 mg/kg subcutaneous, Day 0) | therapeutic efficacy against juvenile sea lice (% reduction vs control) (Lepeophtheirus salmonis [5]) [%] | inhibition in vivo at 5 mg/kg (Lepeophtheirus salmonis [6]) [%] | activity against tick nymphs (≥80% inhibition, killed+damaged) ([3]; 5 mg/kg oral, after 7 days) | activity against tick nymphs (≥80% inhibition, killed+damaged) ([3]; 5 mg/kg oral, after 10 days) | effective to control ticks ([3]; 5 mg/kg) [%] | activity against bed bugs (≥80% inhibition, killed+damaged) ([4]; 5 mg/kg oral, after 7 days) | activity against bed bugs (≥80% inhibition, killed+damaged) ([4]; 5 mg/kg oral, after 10 days) | activity against bed bugs (≥80% inhibition, killed+damaged) [4, 9] | activity against bed bugs (≥80% inhibition, killed+damaged) [4, 10] | effective to control bed bugs [4] [%] | also measured |
| --- | --- | --- | --- | --- | --- | --- | --- | --- | --- | --- | --- | --- | --- | --- | --- | --- | --- | --- |
| O=C(Nc1c(F)cc(F)cc1F)c1cc(NC(=O)[C@H]2[C@H](c3cc(Cl)cc(Cl)c3)C2(Cl)Cl)ccc1Cl [Compound 449] | 100 | 10 to 25 | immediate activity | immediate activity | activity | immediate activity | immediate activity | 80 | 80 | – | – | – | – | – | – | – | – | – |
| O=C(Nc1ccc(F)cc1F)c1cc(NC(=O)[C@H]2[C@H](c3cc(F)c(F)c(F)c3)C2(Cl)Cl)ccc1Cl [Compound 451] | – | ≤ 10 | immediate activity | immediate activity | activity | immediate activity | immediate activity | – | 80 | activity | activity | 100 | activity | activity | activity | activity | 100 | inhibition at 0.001 µM ([1]; 1 nM in seawater): 100%; activity against tick nymphs (≥80% inhibition, killed+damaged) [3, 10]: activity |
| O=C(Nc1cnc(F)cc1F)c1cc(NC(=O)[C@H]2[C@H](c3cc(Cl)cc(Cl)c3)C2(Cl)Cl)ccc1Cl [Compound 455] | 100 | ≤ 10 | immediate activity | immediate activity | – | immediate activity | immediate activity | 100 | 100 | – | – | – | – | – | – | – | – | duration of efficacy, subcutaneous compared with oral administration ([3]; 5 mg/kg, ticks and bed bugs): longer duration of efficacy |
| O=C(Nc1c(F)ccnc1F)c1cc(NC(=O)[C@H]2[C@H](c3cc(Cl)cc(Cl)c3)C2(Cl)Cl)ccc1Cl [Compound 456] | 100 | ≤ 10 | immediate activity | immediate activity | – | immediate activity | immediate activity | 100 | 80 | – | – | – | – | – | – | – | – | prophylactic efficacy at re-infestation on Day 17 (% reduction vs control) (Lepeophtheirus salmonis [5]): 80% |
| O=C(Nc1ncc(F)cn1)c1cc(NC(=O)[C@H]2[C@H](c3cc(Cl)cc(Cl)c3)C2(Cl)Cl)ccc1Cl [Compound 460] | 100 | ≤ 10 | immediate activity | immediate activity | – | immediate activity | immediate activity | 100 | 100 | – | – | – | activity | – | activity | – | – | – |
| O=C(Nc1cnc(F)cc1F)c1cc(NC(=O)[C@H]2[C@H](c3cc(Cl)c(Cl)c(Cl)c3)C2(Cl)Cl)ccc1Cl [Compound 466] | – | ≤ 10 | immediate activity | immediate activity | activity | immediate activity | immediate activity | 80 | 80 | activity | activity | 100 | activity | activity | activity | activity | 100 | inhibition at 0.1 µM ([1]; 100 nM in seawater): 100%; activity against tick nymphs (≥80% inhibition, killed+damaged) ([3]; 5 mg/kg oral, after 14 days): activity; activity against bed bugs (≥80% inhibition, killed+damaged) ([4]; 5 mg/kg oral, after 14 days): activity; activity against bed bugs (≥80% inhibition, killed+damaged) ([4]; 5 mg/kg oral, after 17 days): activity; activity against bed bugs (≥80% inhibition, killed+damaged) ([4]; 5 mg/kg subcutaneous, after 14 days): activity; activity against bed bugs (≥80% inhibition, killed+damaged) ([4]; 5 mg/kg subcutaneous, after 17 days): activity; efficacy against ticks in dogs (conclusion) ([7]; 10 mg/kg): therapeutic efficacy; therapeutic efficacy against ticks (active = efficacy ≥80 percent) ([7]; 10 mg/kg oral): active; therapeutic efficacy against ticks (active = efficacy ≥80 percent) ([7]; 10 mg/kg topical spot-on): active; efficacy against fleas in dogs (conclusion) ([8]; 10 mg/kg): therapeutic efficacy; therapeutic efficacy against fleas (active = efficacy ≥80 percent) ([8]; 10 mg/kg oral): active; therapeutic efficacy against fleas (active = efficacy ≥80 percent) ([8]; 10 mg/kg topical spot-on): active; duration of efficacy (last Day with efficacy ≥80 percent) (Rhipicephalus microplus): 87 days; onset of efficacy (first Day with efficacy ≥80 percent) (Rhipicephalus microplus): 1 days |
